The values that follow are results of earlier work, collected in patent EP1464334A1 (priority 2003, dated 2004).

Molecules are shown by their SMILES. Counter-ions that a name gives are not always drawn. Like-named read-outs stand apart in the source and are kept apart here.

For data set [1] the following is noted: mouse, in vivo, po.
For data set [2] the following is noted: rabbit, in vivo, po.

As to `CCN(CC)CCCC(C)Nc1c2ccc(Cl)cc2nc2ccc(OC)cc12` (centres unmarked) [Chinacrinhydrochlorid], the LD50-Dosis in data set [1] was 557 mg/kg; in data set [2] it was 433 mg/kg.
